Reference: patent US5863716A, “Treatment of plasmodium” (The Leland Stanford Junior University Board of Trustees, priority 1997, dated 1999)

Legend:
sphingomyelin synthase [1] = experiment: Inhibition of plasmodial sphingomyelin biosynthesis in intact infected erythrocytes (C6-NBD-ceramide to C6-NBD-sphingomyelin, TLC); type: cell-based, Plasmodium falciparum
Method: (§1) 1×10^8 infected cells 24 h after invasion were washed serum-free in RPMI 1640 and preincubated for thirty min at 37° C. in 1 ml of RPMI 1640 containing 0-5 μM or 0-500 μM of PPMP. (C6-NBD-ceramide (N-[7-(4-nitrobenzo-2-oxa-1,3-diazide)]-6-aminocaproyl-D-erythro-sphingosine) was added to each sample at a final concentration of 5 μM, the samples further incubated for 30 min at 37° C. and cellular lipids extracted. C6-NBD-sphingomyelin was resolved by TLC and quantitated by fluorescence spectrophotometry as described previously. Bligh, E. G. and Dyer, W. Y. (1959) A rapid method for total lipid extraction and purification., Can. J. Biochem. Physiol. 37: 911-917. Haldar, K., Uyetake, L., Ahori, N., Elmendorf, H. G. and Lu, W-1. (1991) The accumulation and metabolism of a fluorescent ceramide derivative in Plasmodium falciparum--infected erythrocytes., Mo. Biochem. Parasitol. 49: 143-156. Elmendorf, H. G. and Haldar, K. (1994) Plasmodium falciparum exports the Golgi marker sphingomyelin synthase into a tubovesicular network in the cytoplasm of mature erythrocytes., J. Cell Biol. 124: 449-462. Each value obtained represented the mean of triplicate determinations from five experiments. The arrow bars indicate the standard deviations. The results are depicted in FIG. 1.
(§2) P. falciparum strain FCB was used for all experiments and cultured in vitro in according to a modification of the method of Trager and Jensen left off. Trager, W. and Jensen, J. B. (1976) Human malaria in continuous culture., Science (Wash. D.C.) 193: 673-675 Haldar, K., Ferguson, M. A. J. and Cross, G. A. M. (1985) Acylation of a Plasmodium falciparum merozoite surface antigen via sn-1, 2-diacyl glycerol. J. Biol. Chem. 260; 4969-4974. The culture medium contained RPMI 1640 supplemented with 25 Mm hepes, Ph 7.4/11 […] glucose/92 μM hypoxanthine/0.18% sodium bicarbonate/25 μM gentamicin and 10% AB^+ human sera. The parasites were grown in A^+ erythrocytes at 2.5-5% hematocrit. Parasite cultures were synchronized by separation of the early and late stages on a Percoll gradient. The subsequent reincubation of these stages in culture were used to obtain cells 12-24 h in the life cycle. Inhibition of sphingomyelin biosynthetic activity using 5 μM of the various compounds was carried out as described in Example 1. 5 μM of the various compounds were added to 0-12 h rings in the culture medium and cells were examined by Giemsa staining after 24 h.

DNA synthesis = experiment: Effect on DNA synthesis; type: cell-based
P. falciparum strain FCB = experiment: Inhibition of intraerythrocytic growth in culture, Giemsa staining after 24 h; type: cell-based, Plasmodium falciparum; settings: Plasmodium falciparum; 5 μM added to 0-12 h rings; Giemsa staining after 24 h; read-out: [%] inhibition of growth
From the text: as §2

[2] = test system: P. yoelii and P. chabaudi; experiment: Anti-parasite effect in infected mice; type: in vivo, mouse
Method: (§3) Preparation of test compounds, toxicity and pharmacokinetics in mice: PPMP and its derivatives are made up as a stock solution in ethanol, diluted into sterile saline, warmed up to 37° C. and delivered once or several times a day, either intraperitoneally (i.p.) or intravenously (i.v.). The animals are monitored on a daily basis for signs of toxicities which (from mild to extreme) include abnormal grooming behavior, loss or thinning of hair, enlargement of spleen and loss of activity. 0 to 30 micrograms PPMP/per gm of mouse body weight is administered. Effective anti-parasite concentrations of PPMP are predicted to be at ~2 micrograms of PPMP/gm of mouse body weight. Based on preliminary studies, 8-10 micrograms of PPMP per gram of (mouse) body weight have no significant toxicity over 16 days. Compounds and levels found to be non toxic over 30 days will be further tested for their effects on infections of P. yoelii and P. chabaudi.
Effects of PPMP/other lead compounds on non lethal and lethal strains of P. yoelii and P. chabaudi. Both lethal and non lethal strains of P. yoelii have a 24 h cycle. For both strains, parasites can be injected i.p., with an innoculum of 5×10^5 parasites. […]
Mice are injected with the inhibitor on day 1. […] On subsequent days the drugs is delivered once a day and the parasitemia is monitored by tail bleeds. […]

sphingomyelin synthase [3] = experiment: Inhibition of sphingomyelin biosynthesis in hypotonically lysed infected erythrocytes and fractions; type: biochemical, Plasmodium falciparum
Method: as §1
Cells were washed serum-free in PBS and intact cells were incubated in PBS. Cells were lysed in 10 volumes of hypotonic buffer. Pellets and supernatants were separated by centrifugation at 10^4 ×G for 10 min at 4° C. Inhibition of sphingomyelin biosynthetic activity was carried out as described in Example 1. Glutamate dehydrogenase, a parasite cytosolic activity, was assayed using 10 μM alpha-ketoglutarate and 0.1 μM NADPH for 1 h at 37° C. by measuring the absorption at 340 nm in a spectrophotometer. The following table indicates the results

Toxicity in mice = settings: mouse, in vivo; over 16 days; preliminary studies; read-out: dose with no significant toxicity
Method: as §3

CCCCCCCCCCCCCCCC(=O)N[C@H](CN1CCOCC1)[C@H](O)c1ccccc1 (relative stereo) [PPMP, dl-threo-1-phenyl-2-palmitoylamino-3-morpholino-1-propanol]
effect on sphingomyelin synthase activity (sphingomyelin synthase [1]; 0.05-0.5 μM PPMP): initial, rapid decrease in the sphingomyelin synthase activity | concentration at which the second pool of enzyme is quantitatively inhibited (sphingomyelin synthase [1]; second pool): 100 to 500 µM | concentration at which the sensitive pool of sphingomyelin synthase is completely inhibited (sphingomyelin synthase [1]; sensitive pool): 1 to 5 µM | inhibition of DNA synthesis (DNA synthesis): not inhibitory | inhibition at 5 µM (P. falciparum strain FCB): 100% | effective anti-parasite concentration (predicted) [2]: ~ 2 micrograms of PPMP/gm of mouse body weight | inhibition of sphingomyelin biosynthesis at 5 μM PPMP [%] (sphingomyelin synthase [3]; hypotonic lysates): 33% | inhibition of sphingomyelin biosynthesis at 5 μM PPMP [%] (sphingomyelin synthase [3]; pellet of lysate (10^4 x G)): 30% | inhibition of sphingomyelin biosynthesis at 5 μM PPMP [%] (sphingomyelin synthase [3]; supernatant of lysate (10^4 x G)): 3% | NOAEL at 384 h (Toxicity in mice): 8 to 10 mg/kg
